Assay [1] deals with Kappa-type opioid receptor (Homo sapiens, UniProt P41145). The assay is described as follows: Binding affinity to KOR (unknown origin) assessed as inhibition constant by radioligand binding assay.
Assay [2] has as its target Mu-type opioid receptor (Homo sapiens, UniProt P35372). The experiment in a line: Binding affinity to MOR (unknown origin) assessed as inhibition constant by radioligand binding assay.
Assay [3] addresses Sigma intracellular receptor 2 (Homo sapiens, UniProt Q5BJF2). The experiment in a line: Binding affinity to sigma 2 receptor (unknown origin) assessed as inhibition constant by radioligand binding assay.
Assay [4] deals with Delta-type opioid receptor (Homo sapiens, UniProt P41143). The assay is described as follows: Binding affinity to DOR (unknown origin) assessed as inhibition constant by radioligand binding assay.
Chain of Delta-type opioid receptor (P41143 whole entry): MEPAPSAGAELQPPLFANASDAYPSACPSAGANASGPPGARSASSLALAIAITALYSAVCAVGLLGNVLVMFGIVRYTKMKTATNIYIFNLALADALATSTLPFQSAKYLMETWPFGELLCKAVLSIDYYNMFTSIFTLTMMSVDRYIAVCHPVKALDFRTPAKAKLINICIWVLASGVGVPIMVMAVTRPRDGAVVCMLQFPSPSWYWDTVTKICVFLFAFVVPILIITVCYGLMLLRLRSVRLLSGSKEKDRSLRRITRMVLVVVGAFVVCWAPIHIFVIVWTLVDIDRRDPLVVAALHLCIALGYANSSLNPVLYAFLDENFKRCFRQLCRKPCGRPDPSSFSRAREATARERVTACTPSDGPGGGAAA
The target in assay [5] is Sigma non-opioid intracellular receptor 1 (Homo sapiens, UniProt Q99720). The experiment in a line: Binding affinity to sigma 1 receptor (unknown origin) assessed as inhibition constant by radioligand binding assay.
Chain of Sigma non-opioid intracellular receptor 1 (Q99720 whole entry): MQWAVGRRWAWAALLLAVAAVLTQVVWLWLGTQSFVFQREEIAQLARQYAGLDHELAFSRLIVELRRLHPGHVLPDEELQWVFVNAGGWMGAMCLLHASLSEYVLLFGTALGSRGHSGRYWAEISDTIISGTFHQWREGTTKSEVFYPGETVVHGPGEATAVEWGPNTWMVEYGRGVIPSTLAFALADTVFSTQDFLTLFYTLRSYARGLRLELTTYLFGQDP
Assay [6] relates to SK-BR-3. The experiment in a line: Cytotoxicity against ER/PR-negative HER2-positive human SK-BR-3 cells harbouring […] assessed as inhibition of cell growth incubated for 48 hrs by resazurin dye based assay. The settings on record: SK-BR-3, 48 h. The format is functional.
The subject of assay [7] is SK-BR-3. The assay is described as follows: Cytotoxicity against ER/PR-negative HER2-positive human SK-BR-3 cells harbouring […] assessed as reduction in cell viability at 100 to 200 uM incubated for 48 hrs by resazurin dye based assay relative to control. The format is functional. The settings on record: dose 100-200 µM.
The species named for assay [8] is Homo sapiens. The assay is described as follows: Selectivity index, ratio of Ki for sigma 1 receptor (unknown origin) to Ki for sigma 2 receptor (unknown origin).
In assay [9] the test system is MCF7. The experiment in a line: Cytotoxicity against ER/PR-positive HER2-negative human MCF7 cells harbouring […] assessed as inhibition of cell growth incubated for 48 hrs by resazurin dye based assay. The assay is classed as functional. The settings on record: MCF7, 48 h.
The subject of assay [10] is MCF7. The experiment in a line: Cytotoxicity against ER/PR-positive HER2-negative human MCF7 cells harbouring […] assessed as reduction in cell viability at 100 uM incubated for 48 hrs by resazurin dye based assay relative to control. The assay is classed as functional.

pIC50, pKi: −log10 of the molar value.

Chain of Kappa-type opioid receptor (P41145 whole entry): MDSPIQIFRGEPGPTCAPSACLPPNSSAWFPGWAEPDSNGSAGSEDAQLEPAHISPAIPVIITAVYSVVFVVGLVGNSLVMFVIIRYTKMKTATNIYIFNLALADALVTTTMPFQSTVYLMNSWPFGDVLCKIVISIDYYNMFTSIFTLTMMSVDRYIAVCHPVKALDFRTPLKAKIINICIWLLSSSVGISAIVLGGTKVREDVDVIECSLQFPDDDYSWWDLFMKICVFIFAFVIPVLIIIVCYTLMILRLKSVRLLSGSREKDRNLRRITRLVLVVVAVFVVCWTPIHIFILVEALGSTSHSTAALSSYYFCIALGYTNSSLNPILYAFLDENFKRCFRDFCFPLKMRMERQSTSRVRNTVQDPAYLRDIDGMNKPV
Chain of Sigma intracellular receptor 2 (Q5BJF2 whole entry): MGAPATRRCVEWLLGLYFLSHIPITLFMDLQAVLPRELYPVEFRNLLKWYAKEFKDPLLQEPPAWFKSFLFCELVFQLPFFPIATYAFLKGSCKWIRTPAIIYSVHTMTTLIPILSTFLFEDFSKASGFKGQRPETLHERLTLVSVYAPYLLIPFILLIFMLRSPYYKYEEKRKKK
Chain of Mu-type opioid receptor (P35372 whole entry): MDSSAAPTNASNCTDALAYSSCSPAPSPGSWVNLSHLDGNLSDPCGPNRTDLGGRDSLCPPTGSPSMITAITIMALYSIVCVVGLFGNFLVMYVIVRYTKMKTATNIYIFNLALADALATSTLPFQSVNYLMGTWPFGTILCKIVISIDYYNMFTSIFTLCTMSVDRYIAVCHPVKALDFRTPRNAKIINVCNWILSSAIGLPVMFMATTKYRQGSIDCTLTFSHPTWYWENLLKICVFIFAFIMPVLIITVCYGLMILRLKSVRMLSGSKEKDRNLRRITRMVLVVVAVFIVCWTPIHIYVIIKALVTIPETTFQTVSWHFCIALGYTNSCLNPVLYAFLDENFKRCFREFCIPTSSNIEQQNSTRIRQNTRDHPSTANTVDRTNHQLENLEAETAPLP

Turning to `COc1ccc(CN(C)CCCNC(=O)c2ccco2)cc1OC`, the pKi in [1] is 5.38; in assay [2], below 5.00; in [3] it was below 5.30; in [4], below 5.00; in [5], below 5.00.

In the case of `CN(CCCNC(=O)c1cc2ccccc2o1)Cc1ccccc1`, the results for the pIC50 in assay [6] and in [9] (read-out: IC50) were 4.28 and 4.07, respectively. Moreover, the Activity was 50% in assay [7] and “<=50%” in assay [10]. Besides, the pKi in [1] is 5.62; in assay [2], 5.75; in assay [3], 8.00; in assay [4], below 5.00; in [5] it was 7.92. The Ratio Ki in assay [8] turned out to be 1.2.

In the case of `COc1ccc(CN(C)CCCNC(=O)c2ccc3ccccc3c2)cc1OC`, the pKi is below 5.00 in assay [1]; 5.91 in [2]; 6.90 in [3]; below 5.00 in assay [4]; 5.84 in assay [5]. Also, in assay [8], the Ratio Ki is 11.

As for `CN(CCCNC(=O)c1ccc2ccccc2c1)Cc1ccccc1`, the negative logarithm of the Ki (pKi) in assay [1] was below 5.00; in [2], 5.46; in assay [3] it was 6.97; in assay [4], below 5.00; in assay [5] it was 6.98. Besides, the Ratio Ki in [8] was 1.

Take `COc1ccc(CN(C)CCCNC(=O)c2cc3ccccc3o2)cc1OC`: the figures for the pIC50 in assay [6] and in [9] (read-out: IC50) were 4.46 and 4.44, respectively. The Activity entry in assay [7] and in assay [10] was “<=60%” each time. For the same molecule, the negative-log Ki (pKi) in assay [1] is below 5.00; in assay [2], 5.54; in assay [3] it was 7.34; in assay [4], below 5.00; in assay [5], 6.43. For the same molecule, the Ratio Ki in assay [8] stood at 8.1.

In the case of `Fc1ccc(-n2cc(CCCCN3CCC4(CC3)OCc3ccccc34)c3ccccc32)cc1` [SIRAMESINE], the figures for the pIC50 in assay [6] and in assay [9] (read-out: IC50) were 4.85 and 4.89, respectively. Further, the Activity in [7] is 98%; in assay [10], 96%.

`CN(CCCNC(=O)c1ccc2ccccc2n1)Cc1ccccc1`: the figures for the pIC50 in assay [6] and in [9] (read-out: IC50) were 3.77 and 2.79, respectively. Besides, the Activity is reported as 50% in [7] and 30% in assay [10]. Moreover, the pKi in [1] is 5.45; in assay [2] it was 5.56; in assay [3], 7.68; in [4] it was below 5.00; in assay [5], 7.80. In [8], the Ratio Ki amounted to 0.7.

Consider `CN(CCCNC(=O)c1ccco1)Cc1ccccc1`, for which the pKi in [1] was below 5.00; in [2], below 5.00; in [3], 5.97; in [4], below 5.00; in assay [5], below 5.00.

Turning to `O=C(CCCN1CCC(O)(c2ccc(Cl)cc2)CC1)c1ccc(F)cc1` [HALOPERIDOL], the negative logarithm of the IC50 (pIC50) is 3.88 in assay [6] and 4.17 in assay [9]. Further, the Activity is recorded as 48% in assay [7] and 79% in [10].

On to `COc1ccc(CN(C)CCCNC(=O)c2ccc3ccccc3n2)cc1OC`, for which the negative-log IC50 (pIC50) is 4.06 in assay [6] and 3.60 in [9] (read-out: IC50). The Activity result is recorded as “<=60%” in assay [7] and “<=50%” in [10]. For the same molecule, the pKi in assay [1] was below 5.00; in assay [2], 7.25; in assay [3], 7.80; in assay [4], below 5.00; in assay [5] it was 6.24. In [8], the Ratio Ki came out at 35.

The values are drawn from ChEMBL document CHEMBL5113446, “Design, synthesis and biological evaluation of novel aminopropylcarboxamide derivatives as sigma ligands” (Bioorg Med Chem Lett, 2022).
